From the supplement of paper PMC8837787

Tested on: Saccharomyces cerevisiae ABC16-Green Monster
Assay: growth inhibition at single dose (up to 150 µM), below the 70% cut-off for dose-response; higher = more potent
Conditions: 18 h; 30 °C; YPD
In short: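 Values are percent growth inhibition of drug-sensitive S. cerevisiae ABC16-Green Monster cells. Cells grown overnight in YPD at 30 °C were diluted to log phase (OD600 0.1–0.2), and each library compound was added at a single dose of 150 µM to 200 µl culture per well in 96-well plates, in biological duplicates, beside untreated cultures. OD600 was read at 0 h and after 18 h at 30 °C, and compounds under 70% in both replicates were not taken to dose-response.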

O=C(Cn1ccnc1[N+](=O)[O-])NCc1ccccc1
growth inhibition at single dose: < 70%

CN1C=C(c2ccc3ccccc3n2)C(c2c[nH]c3ccccc23)c2ccccc21 (configuration not stated)
growth inhibition at single dose: < 70%

Cc1cnc(NC(=O)c2ccc(C3SCCS3)cc2)s1
growth inhibition at single dose: < 70%

CCn1c2c(c(=N)c3c1CCC3)CCCC2
growth inhibition at single dose: < 70%

CCCc1c(CC)c(=N)c2ccccc2n1C
growth inhibition at single dose: < 70%

COc1ccc(-c2cc3c(SCC(=O)Nc4cc(C(F)(F)F)ccc4Cl)nccn3n2)cc1
growth inhibition at single dose: < 70%

Oc1c(I)cc(I)c2cccnc12
growth inhibition at single dose: < 70%

Cn1c(Oc2cccc3c2OC(C)(C)C3)c(C#N)c(=O)n(C)c1=O
growth inhibition at single dose: < 70%

O=c1nc(C=Cc2ccc(Br)cc2)oc2ccccc12
growth inhibition at single dose: < 70%

Fc1ccccc1-n1cnnc1SC(c1ccccc1)c1ccccc1
growth inhibition at single dose: < 70%

Cc1ccc2c(CSc3nc(N)c(C#N)cc3C#N)cc(=O)oc2c1C
growth inhibition at single dose: < 70%

O=C(NC(c1ccccc1)c1ccc2cccnc2c1O)c1ccccc1 (configuration not stated)
growth inhibition at single dose: < 70%

COc1ccc(Nc2cc(C)nc(-n3nc(C)cc3C)n2)cc1
growth inhibition at single dose: < 70%

CCCOc1ccc(/C=N/NC(=S)Nc2ccccc2[N+](=O)[O-])c(O)c1
growth inhibition at single dose: < 70%

CC(=O)NC(C)CCc1ccc(C(=O)Cn2ncc(Cl)c(Cl)c2=O)cc1 (configuration not stated)
growth inhibition at single dose: < 70%

O=C(/C=C/c1ccc([N+](=O)[O-])cc1)NCC(=O)N1CCN(S(=O)(=O)c2ccc(Cl)cc2)CC1
growth inhibition at single dose: < 70%

CN(N=O)C1=C(NC2CCCCC2)C(=O)c2ccccc2C1=O
growth inhibition at single dose: < 70%

COc1ccc(S(=O)(=O)N(Cc2cccs2)c2ccc3c(c2)OCCO3)cc1NC(C)=O
growth inhibition at single dose: < 70%

O=C(Nc1nnc(S)s1)c1cc(Br)ccc1Cl
growth inhibition at single dose: < 70%

C[C@H](C(N)=O)N1CCCC[C@H]1c1ccc(OCc2cccc(F)c2)cc1
growth inhibition at single dose: < 70%

C[C@H](C(N)=O)N1CCCC[C@@H]1c1ccc(OCc2cccc(F)c2)cc1
growth inhibition at single dose: < 70%

C=CCc1c(C)nc2ccccc2c1O
growth inhibition at single dose: < 70%

NCC(=O)N1CCn2c(nc(-c3ccccc3)c2Nc2ccc3c(c2)OCO3)C1
growth inhibition at single dose: < 70%

COc1ccc(CN2CCCC(C(=O)c3ccc(C(F)(F)F)cc3)C2)c(O)c1 (configuration not stated)
growth inhibition at single dose: < 70%

CC/N=c1\scc(-c2ccc(Cl)cc2)n1/N=C/c1ccc[nH]1
growth inhibition at single dose: < 70%

CC1COC2(CCN(c3nc(=O)c4cc(C(F)(F)F)cc([N+](=O)[O-])c4s3)CC2)O1 (configuration not stated)
growth inhibition at single dose: < 70%

Cc1nn2c(=O)c(Cc3ccccc3)c(C)[nH]c2c1-c1ccc(F)cc1
growth inhibition at single dose: < 70%

COC(=O)c1ccc(C2C3=C(O)CC(c4ccc(F)cc4)CC3=Nc3ccccc3N2C(=O)c2ccccc2)cc1 (configuration not stated)
growth inhibition at single dose: < 70%

CSC1=NC(=Nc2c(C)cccc2C)C2(CCC(C(C)(C)C)CC2)N1c1ccc(Cl)cc1 (configuration not stated)
growth inhibition at single dose: < 70%

COCC(C)n1c(C)cc(C(=O)COC(=O)c2cccn2C)c1C (configuration not stated)
growth inhibition at single dose: < 70%

COc1ccc(CC(=O)N2CCN(C)c3nc4ccccc4nc32)cc1F
growth inhibition at single dose: < 70%

O=C(Nc1cnc2ccccc2c1)c1cccc(-n2cnnn2)c1
growth inhibition at single dose: < 70%

Cc1cc(N2CCN(C)CC2)n2ncc(-c3ccc(F)cc3)c2n1
growth inhibition at single dose: < 70%

COc1ccc2nc(C)cc(Nc3ccc(Cl)cc3)c2c1
growth inhibition at single dose: < 70%

N#Cc1ccc(-c2cnc(N)c(-c3ccc(C(N)=O)cc3)n2)cc1
growth inhibition at single dose: < 70%

COc1ccc(OC)c(C2C3=C(CC(C)(C)CC3=O)N(c3ccc(Cl)c(Cl)c3)C3=C2C(=O)CC(C)(C)C3)c1
growth inhibition at single dose: < 70%

COc1ccccc1NC(=O)NCc1nc(-c2ccccc2)c[nH]1
growth inhibition at single dose: < 70%

Cc1cccc(NC(=O)c2cc(S(=O)(=O)N(C)c3ccc(F)cc3)ccc2Cl)n1
growth inhibition at single dose: < 70%

Cc1cc(C(=O)Nc2ccc(-c3ccccc3)cc2)no1
growth inhibition at single dose: < 70%

C[C@]1(O)C[C@@H](c2nc(-c3ccc4ccc(-c5ccccc5)nc4c3)c3c(N)nccn32)C1
growth inhibition at single dose: < 70%

CC(C)c1cc(C(=O)Nc2nnc3ccccn23)c2cnn(C(C)C)c2n1
growth inhibition at single dose: < 70%

CCn1c(CN2CCN(Cc3ccccc3)CC2)nc2cc(NC(=O)c3cccs3)ccc21
growth inhibition at single dose: < 70%

Cc1ccc(S(=O)(=O)Nc2ccc(CN3CCN(C(=O)c4cccc(C#N)c4)CC3)cc2)cc1
growth inhibition at single dose: < 70%

CCc1ccc(CNCC(O)c2ccccc2)cc1 (configuration not stated)
growth inhibition at single dose: < 70%

Cc1cc(C(=O)CSc2nc3ccccc3[nH]2)c(C)n1CC1CCCO1 (configuration not stated)
growth inhibition at single dose: < 70%

N#Cc1nc(-c2ccccc2)oc1S(=O)(=O)c1ccc(Cl)cc1
growth inhibition at single dose: < 70%

COC(=O)c1cc(OC)c(OC)cc1NS(=O)(=O)c1ccc(OC)cc1
growth inhibition at single dose: < 70%

COc1ccc(-[n+]2c(C)cn3c2CCc2ccccc2-3)cc1
growth inhibition at single dose: < 70%

CN(C)CCCNCc1ccc(-c2ccc(F)c(Cl)c2)o1
growth inhibition at single dose: < 70%

O=S(=O)(c1ccc(Cl)c(N=C2NN=C(c3c[nH]c4ccccc34)CS2)c1)N1CCOCC1
growth inhibition at single dose: < 70%

CNc1nc(-c2[nH]c(C)c(C(=O)OC)c2C)cs1
growth inhibition at single dose: < 70%

Cc1nnc(NCc2cccc(Cl)c2)c2ccccc12
growth inhibition at single dose: < 70%

CN(CC(=O)Nc1ccc(Cl)c(C(F)(F)F)c1)Cc1ccc(O)c2ncccc12
growth inhibition at single dose: < 70%

CN1CCN(c2ccc(NC(=O)c3csc4c3CCCC4)cc2)CC1
growth inhibition at single dose: < 70%

Cc1ccc(N2C(=O)C3C(C2=O)C2(c4ccccc4)C(=O)C3(c3ccccc3)C(c3ccccc3)=C2c2ccccc2)cc1 (configuration not stated)
growth inhibition at single dose: < 70%

CS(=O)(=O)N1CCC(CCn2nc(Cc3cccc4ccccc34)c3c(N)ncnc32)CC1
growth inhibition at single dose: < 70%

CCN(CC)CCNc1ncnc2c1[nH]c1ccc(Cl)cc12
growth inhibition at single dose: < 70%

O=C(Nc1ccc(F)c(-c2nc3cc(-c4ccccc4)cnc3[nH]2)c1)N1CCCC1
growth inhibition at single dose: < 70%

O=C(Nc1ccc(Cl)cc1)N1CCN(c2ccc3nncn3n2)CC1
growth inhibition at single dose: < 70%

CCOc1cc2c(cc1OCC)C(c1cc(C)c(O)c(C)c1)NCC2 (configuration not stated)
growth inhibition at single dose: < 70%

CC(C(=O)NC(N)=O)N(C)Cc1ccc(OCc2ccc(Cl)cc2)cc1 (configuration not stated)
growth inhibition at single dose: < 70%

CC(C)(C)c1ccc(C(=O)NCCOc2ccccc2F)cc1
growth inhibition at single dose: < 70%

CCc1ccc(-n2nnnc2-c2cnc(N)nc2-c2ccccc2)cc1
growth inhibition at single dose: < 70%

Cc1nn(-c2ccccc2)c(C)c1-c1nc(-c2ccccc2)no1
growth inhibition at single dose: < 70%

CC(Oc1ccc(NC(=O)c2cccs2)cc1)C(=O)c1ccc(Cl)cc1 (configuration not stated)
growth inhibition at single dose: < 70%

Cc1ccc(O)c(C(=O)NCCC(C)C)c1
growth inhibition at single dose: < 70%

O=C(NCCCN1CCC(N2CCCCC2)CC1)C1=Cc2cc(Br)ccc2OC1
growth inhibition at single dose: < 70%

CC1CC1C(=O)NC1CCN(CC2(c3ccccc3)CCCCC2)CC1 (configuration not stated)
growth inhibition at single dose: < 70%

Cn1cc(/C=C/C(=O)Nc2ncc(Cc3ccccc3)s2)cn1
growth inhibition at single dose: < 70%

Nc1nc2ccc(-c3cncc(Oc4ccc(F)cc4)c3)cc2[nH]1
growth inhibition at single dose: < 70%

CC(C)C(C(=O)Nc1ccc(S(=O)(=O)N(C)C)cc1)c1ccc(Cl)cc1 (configuration not stated)
growth inhibition at single dose: < 70%

CN(c1ccccc1)S(=O)(=O)c1ccc(NC(=O)c2cccs2)cc1
growth inhibition at single dose: < 70%

O=C(Cn1ncc(Cl)c(Cl)c1=O)N1N=C(c2ccco2)CC1c1cccs1 (configuration not stated)
growth inhibition at single dose: < 70%

COC(=O)c1c(NC(=O)c2c(F)c(F)c(F)c(F)c2F)sc2c1CCCCC2
growth inhibition at single dose: < 70%

COc1ccc(-c2cc3ncnc(NCc4ccc(N5CCN(C)CC5)nc4)c3s2)cc1
growth inhibition at single dose: < 70%

COc1ccc2nc(C)cc(OCC(=O)Nc3ccccc3OC)c2c1
growth inhibition at single dose: < 70%

CCC(C)c1ccc(S(=O)(=O)N(Cc2ccc(C(=O)NC3CC3)cc2)C2CC2)cc1 (configuration not stated)
growth inhibition at single dose: < 70%

COc1ccc(O)c(C(=O)c2cc(Cl)c3nc4ccccc4c(=O)n3c2)c1
growth inhibition at single dose: < 70%

O=C(NCc1ccco1)C1CCN(S(=O)(=O)c2ccc(Br)cc2)CC1
growth inhibition at single dose: < 70%

Clc1cccc(CO[C@H]2CCc3ccccc3[C@@H]2n2ccnn2)c1
growth inhibition at single dose: < 70%

CCn1c(O)c(C2NCCc3c2[nH]c2ccc(OC)cc32)c(=O)[nH]c1=O (configuration not stated)
growth inhibition at single dose: < 70%

Cc1nc(C(=O)N2CCc3c(c(C(=O)NCc4ccccn4)nn3CCc3ccccc3)C2)cs1
growth inhibition at single dose: < 70%
